{
  "source": "ChEMBL document CHEMBL3045528",
  "about": "“Development of a Novel Fungicide, Cyazofamid” (J Pestic Sci, 2004)",
  "key": {"[1]": {"experiment": "Acute toxicity in po dosed Rattus norvegicus (rat)", "assay_type": "organism-based", "settings": "in vivo"}, "Apis mellifera [2]": {"system": "Apis mellifera", "experiment": "Acute toxicity in po dosed Apis mellifera (honey bee)", "assay_type": "organism-based", "settings": "in vivo"}, "[3]": {"experiment": "Toxicity in Cyprinidae (carp fish)", "assay_type": "ADME, organism-based", "settings": "in vivo"}, "[4]": {"experiment": "Acute toxicity in po dosed Mus musculus (mouse)", "assay_type": "organism-based", "settings": "in vivo"}, "Daphnia magna": {"system": "Daphnia magna", "experiment": "Toxicity in Daphnia magna", "assay_type": "organism-based"}, "Apis mellifera [5]": {"system": "Apis mellifera", "experiment": "Acute toxicity in Apis mellifera (honey bee) compound administered topically", "assay_type": "organism-based", "settings": "in vivo, topical_or_ocular"}, "Plasmopara viticola": {"system": "Plasmopara viticola", "experiment": "Antimicrobial activity against Plasmopara viticola infested in grapevines", "assay_type": "functional"}, "[6]": {"system": "Pseudoperonospora cubensis", "experiment": "Antimicrobial activity against Pseudoperonospora cubensis infested in melons", "assay_type": "functional"}, "Phytophthora infestans [7]": {"system": "Phytophthora infestans", "experiment": "Antimicrobial activity against Phytophthora infestans infested in tomato plant", "assay_type": "functional"}, "[8]": {"experiment": "Toxicity in Oncorhynchus mykiss (rainbow trout)", "assay_type": "organism-based", "settings": "in vivo"}, "[9]": {"experiment": "Acute toxicity in Rattus norvegicus (rat) administered through inhalation", "assay_type": "organism-based", "settings": "in vivo, inhaled or intranasal"}, "[10]": {"experiment": "Acute toxicity in Pheretima sieboldi", "assay_type": "organism-based", "settings": "metaphire sieboldi, in vivo"}, "Phytophthora infestans [11]": {"system": "Phytophthora infestans", "experiment": "Antimicrobial activity against Phytophthora infestans infested in potato plant", "assay_type": "functional"}, "[12]": {"system": "Selenastrum capricornutum", "experiment": "Toxicity in Selenastrum capricornutum", "assay_type": "organism-based"}, "[13]": {"system": "Pseudoperonospora cubensis", "experiment": "Antimicrobial activity against Pseudoperonospora cubensis infested in cucumber plant", "assay_type": "functional"}, "[14]": {"experiment": "Solubility of the compound in water at pH 5 at 20 degC", "assay_type": "physicochemical"}, "[15]": {"experiment": "Acute toxicity in […] dosed Rattus norvegicus (rat)", "assay_type": "organism-based", "settings": "in vivo"}},
  "data": [
    {"smiles": "Cc1ccc(-c2c(Cl)nc(C#N)n2S(=O)(=O)N(C)C)cc1", "note": "[Cyazofamid]", "values": [
      {"measurement": "LD50", "setting": "[1]", "result": "> 5000", "unit": "mg/kg"},
      {"measurement": "LD50", "setting": "Apis mellifera [2]", "result": "> 151.7", "unit": "µg"},
      {"measurement": "LC50", "setting": "[3]", "result": "> 69.6", "unit": "µg/mL"},
      {"measurement": "LD50", "setting": "[4]", "result": "> 5000", "unit": "mg/kg"},
      {"measurement": "EC50", "setting": "Daphnia magna", "result": "> 0.198", "unit": "µg/mL"},
      {"measurement": "LD50", "setting": "Apis mellifera [5]", "result": "> 100", "unit": "µg"},
      {"measurement": "Activity", "setting": "Plasmopara viticola", "result": 50, "unit": "µg/mL"},
      {"measurement": "Activity", "setting": "[6]", "result": 50, "unit": "µg/mL"},
      {"measurement": "Activity", "setting": "Phytophthora infestans [7]", "result": 50, "unit": "µg/mL"},
      {"measurement": "LC50", "setting": "[8]", "result": "> 100", "unit": "µg/mL"},
      {"measurement": "LC50", "setting": "[9]", "result": "> 5.5", "unit": "µg/mL"},
      {"measurement": "NOAEL", "setting": "[10]", "result": "> 1000", "unit": "mg/kg"},
      {"measurement": "Activity", "setting": "Phytophthora infestans [11]", "result": 50, "unit": "µg/mL"},
      {"measurement": "EC50", "setting": "[12]", "result": 0.858, "unit": "µg/mL"},
      {"measurement": "Activity", "setting": "[13]", "result": 50, "unit": "µg/mL"},
      {"measurement": "solubility", "setting": "[14]", "result": 0.121, "unit": "µg/mL"},
      {"measurement": "LD50", "setting": "[15]", "result": "> 2000", "unit": "mg/kg"}
    ]}
  ]
}
